According to the supplement of paper PMC10883282:

Columns and labels:
Assay in all cases: relative viability vs DMSO control (72 h) (fraction); higher = more viable cells
A204 = test system: A204
Method in brief: (§1)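 Serially diluted compound, 2.5 µl from source plates spanning 10 mM to 0.0002 mM, was added 24 h after sarcoma cell lines were seeded in 384-well plates at densities targeting 80–90% confluence. Plates then sat 72 h at 37 °C, 5% CO2, with 0.1% DMSO vehicle and a 5 µM positive control. Relative viability came from ATPLite as percent growth, averaged over up to triplicate wells, and was rescaled with 1 as full and 0 as none.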

HS729 = test system: HS729
Method in brief: as §1

KHOS-NP = test system: KHOS-NP
Method in brief: as §1

SW684 = test system: SW684
Method in brief: as §1

SW872 = test system: SW872
Method in brief: as §1

Cc1cc(Nc2ncc(Cl)c(Nc3ccccc3S(=O)(=O)C(C)C)n2)c(OC(C)C)cc1C1CCNCC1 [Ceritinib]
relative viability
Settings	A204	HS729	KHOS-NP	SW684	SW872
0.00017 µM	1.05	0.955	1.04	1.07	1
0.00051 µM	1.07	1.02	1.04	1.083	1.02
0.00152 µM	1.08	1.03	1.04	1.09	1.07
0.00457 µM	1.07	1.01	1.06	1.08	1.06
0.01372 µM	1.07	1.03	1.06	1.12	1.09
0.04115 µM	1.06	1.02	1.05	1.095	1.04
0.1235 µM	1.06	0.95	1.05	1.122	1
0.3704 µM	1.04	0.847	1.02	1.08	0.946
1.111 µM	0.928	0.751	1.02	1.15	0.8717
3.333 µM	0.334	0.626	0.95	0.883	0.631
10 µM	0.0012	0.0042	0.0055	-0.0212	-0.00807

C[C@@H](Oc1cc(-c2cnn(C3CCNCC3)c2)cnc1N)c1c(Cl)ccc(F)c1Cl [Crizotinib]
relative viability
Settings	A204	HS729	KHOS-NP	SW684	SW872
0.00017 µM	1.07	0.998	1.11	1.16	1.06
0.00051 µM	1.05	1.01	1.107	1.19	1.07
0.00152 µM	1.08	0.9714	1.09	1.17	1.09
0.00457 µM	1.08	0.98	1.11	1.23	1.06
0.01372 µM	1.1	0.9284	1.1	1.21	1.08
0.04115 µM	1.09	0.947	1.1	1.22	1.09
0.1235 µM	1.08	0.922	1.103	1.17	1.014
0.3704 µM	0.963	0.872	1.103	1.09	0.921
1.111 µM	0.823	0.744	1.08	0.976	0.644
3.333 µM	0.577	0.58	0.974	0.737	0.463
10 µM	0.0123	0.0222	0.0806	0.0253	-0.00847
